# Test results published in patent publication US20170037028A1 (BAYER PHARMA AKTIENGESELLSCHAFT, priority 2013, published 2017).
# Biological target: T1, GLUT1 (Homo sapiens, UniProt P11166)
# T1 sequence (P11166 1-492): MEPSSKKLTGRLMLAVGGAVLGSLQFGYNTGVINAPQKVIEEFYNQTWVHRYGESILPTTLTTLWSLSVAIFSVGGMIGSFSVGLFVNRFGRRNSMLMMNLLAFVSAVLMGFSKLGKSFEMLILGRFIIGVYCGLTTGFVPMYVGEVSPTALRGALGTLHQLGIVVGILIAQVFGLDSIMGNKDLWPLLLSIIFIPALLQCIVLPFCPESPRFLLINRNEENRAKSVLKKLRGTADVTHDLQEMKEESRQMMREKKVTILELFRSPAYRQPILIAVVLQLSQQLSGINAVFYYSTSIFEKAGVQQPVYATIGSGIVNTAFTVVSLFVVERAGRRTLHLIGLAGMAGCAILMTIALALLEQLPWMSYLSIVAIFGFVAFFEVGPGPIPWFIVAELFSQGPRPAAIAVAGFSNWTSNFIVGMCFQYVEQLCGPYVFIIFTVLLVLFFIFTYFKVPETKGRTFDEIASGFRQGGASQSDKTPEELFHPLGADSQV
# Assay: Indirect measurement of GLUT1 activity by quantification of intracellular ATP levels (glucose induced ATP increase)
# Assay type: cell-based
# Parameters: endogenous in cells; host or cells: DLD1 or CHO-K1
# Conditions: read-out: IC50 regarding glucose induced ATP increase (GLUT1 inhibition)
# Procedure, shortened: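 Intracellular ATP was measured by CellTiter-Glo luminescence as an indirect readout of transport: glucose-driven for GLUT1, fructose-driven for GLUT2. DLD1 or CHO-K1 cells were used alongside an oxidative phosphorylation inhibitor. Beforehand, cells were held overnight in glucose-free 1% FCS medium to deplete ATP.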
row,Compound,IC50 [nM]
1,"Cc1nn(Cc2cccc(C#N)c2)c(C)c1NC(=O)c1cc(C(F)(F)F)nc2c(Cl)cc(Cl)cc12 [Example 91, 6,8-dichloro-N-[1-(3-cyanobenzyl)-3,5-dimethyl-1H-pyrazol-4-yl]-2-(trifluoromethyl)quinoline-4-carboxamide]",292
2,"Cc1ccc2nc(C)cc(C(=O)Nc3c(C)nn(Cc4ccccc4)c3C)c2c1 [Example 92, N-(1-benzyl-3,5-dimethyl-1H-pyrazol-4-yl)-2,6-dimethylquinoline-4-carboxamide]",292
3,"Cc1nn(Cc2ccccc2F)c(C)c1NC(=O)c1cc(C(F)(F)F)nc2c(Cl)cc(Cl)cc12 [Example 94, 6,8-dichloro-N-[1-(2-fluorobenzyl)-3,5-dimethyl-1H-pyrazol-4-yl]-2-(trifluoromethyl)quinoline-4-carboxamide]",304
4,"COc1c(C)nc2ccccc2c1C(=O)Nc1c(C)nn(Cc2ccc(F)cc2)c1C [Example 95, N-[1-(4-fluorobenzyl)-3,5-dimethyl-1H-pyrazol-4-yl]-3-methoxy-2-methylquinoline-4-carboxamide]",309
5,"Cc1ccc2nc(C)cc(C(=O)Nc3c(C)nn(Cc4ccc(F)cc4F)c3C)c2c1 [Example 96, N-[1-(2,4-difluorobenzyl)-3,5-dimethyl-1H-pyrazol-4-yl]-2,6-dimethylquinoline-4-carboxamide]",344
6,"Cc1nn(Cc2ccc(F)cc2)c(C)c1NC(=O)c1cc(C(F)(F)F)nc2ccc(C(F)(F)F)cc12 [Example 98, N-[1-(4-fluorobenzyl)-3,5-dimethyl-1H-pyrazol-4-yl]-2,6-bis(trifluoromethyl)quinoline-4-carboxamide]",362
7,"Cc1nn(Cc2ccc(F)cc2)c(C)c1NC(=O)c1cc(C2CC2)nc2cc(Br)ccc12 [Example 100, 7-bromo-2-cyclopropyl-N-[1-(4-fluorobenzyl)-3,5-dimethyl-1H-pyrazol-4-yl]quinoline-4-carboxamide]",371
8,"Cc1cccc(Cn2nc(C)c(NC(=O)c3cc(C)nc4ccc(C)cc34)c2C)c1 [Example 101, N-[3,5-dimethyl-1-(3-methylbenzyl)-1H-pyrazol-4-yl]-2,6-dimethylquinoline-4-carboxamide]",396
9,"Cc1nn(Cc2ccc(F)cc2)c(C)c1NC(=O)c1cc(C(F)(F)F)nc2ccc(C#N)cc12 [Example 103, 6-cyano-N-[1-(4-fluorobenzyl)-3,5-dimethyl-1H-pyrazol-4-yl]-2-(trifluoromethyl)quinoline-4-carboxamide]",462
10,"Cc1nn(Cc2cccc(F)c2)c(C)c1NC(=O)c1cc(C(F)(F)F)nc2c(Cl)cc(Cl)cc12 [Example 104, 6,8-dichloro-N-[1-(3-fluorobenzyl)-3,5-dimethyl-1H-pyrazol-4-yl]-2-(trifluoromethyl)quinoline-4-carboxamide]",519
11,"Cc1cc(C(=O)Nc2c(C)nn(Cc3ccc(F)cc3)c2C)c2ccccc2n1 [Example 105, N-[1-(4-fluorobenzyl)-3,5-dimethyl-1H-pyrazol-4-yl]-2-methylquinoline-4-carboxamide]",528
12,"COc1cccc(Cn2nc(C)c(NC(=O)c3cc(C)nc4ccc(C)cc34)c2C)c1 [Example 109, N-[1-(3-methoxybenzyl)-3,5-dimethyl-1H-pyrazol-4-yl]-2,6-dimethylquinoline-4-carboxamide]",688
13,"Cc1nn(Cc2cccc(OC(F)(F)F)c2)c(C)c1NC(=O)c1cc(C(F)(F)F)nc2ccc(Br)cc12 [Example 113, 6-bromo-N-{3,5-dimethyl-1-[3-(trifluoromethoxy)benzyl]-1H-pyrazol-4-yl}-2-(trifluoromethyl)quinoline-4-carboxamide]",813
14,"Cc1ccc2nc(C)cc(C(=O)Nc3c(C)nn(Cc4ccccc4C#N)c3C)c2c1 [Example 114, N-[1-(2-cyanobenzyl)-3,5-dimethyl-1H-pyrazol-4-yl]-2,6-dimethylquinoline-4-carboxamide]",833
15,"COc1cc(C(=O)Nc2c(C)nn(Cc3cccc(OC(F)(F)F)c3)c2C)c2ccccc2n1 [Example 115, N-{3,5-dimethyl-1-[3-(trifluoromethoxy)benzyl]-1H-pyrazol-4-yl}-2-methoxyquinoline-4-carboxamide]",833
16,"Cc1cccnc1Cn1nc(C)c(NC(=O)c2cc(C(F)(F)F)nc3ccc(Br)cc23)c1C [Example 116, 6-bromo-N-{3,5-dimethyl-1-[(3-methylpyridin-2-yl)methyl]-1H-pyrazol-4-yl}-2-(trifluoromethyl)quinoline-4-carboxamide]",889
17,"Cc1nn(Cc2ccccc2C#N)c(C)c1NC(=O)c1cc(C(C)C)nc2ccc(Br)cc12 [Example 118, 6-bromo-N-[1-(2-cyanobenzyl)-3,5-dimethyl-1H-pyrazol-4-yl]-2-(propan-2-yl)quinoline-4-carboxamide]",0.5
18,"Cc1nn(Cc2ccc(F)cc2)c(C)c1NC(=O)c1cc(C(N)=O)nc2ccc(Br)cc12 [Example 119, 6-bromo-N^4-[1-(4-fluorobenzyl)-3,5-dimethyl-1H-pyrazol-4-yl]quinoline-2,4-dicarboxamide]",1.3
19,"Cc1nn(Cc2ccc(F)cc2)c(C)c1NC(=O)c1cc(C(F)(F)F)nc2cc(F)c(Cl)cc12 [Example 121, 6-chloro-7-fluoro-N-[1-(4-fluorobenzyl)-3,5-dimethyl-1H-pyrazol-4-yl]-2-(trifluoromethyl)quinoline-4-carboxamide]",1.7
20,"Cc1nn(Cc2ccc(F)cc2)c(C)c1NC(=O)c1cc(C(N)=O)nc2ccccc12 [Example 122, N^4-[1-(4-fluorobenzyl)-3,5-dimethyl-1H-pyrazol-4-yl]quinoline-2,4-dicarboxamide]",1.9
21,"Cc1nn(Cc2ccc(F)c(F)c2)c(C)c1NC(=O)c1cc(C2CC2)nc2ccc(Br)cc12 [Example 123, 6-bromo-2-cyclopropyl-N-[1-(3,4-difluorobenzyl)-3,5-dimethyl-1H-pyrazol-4-yl]quinoline-4-carboxamide]",2

# The remaining compounds from weak to strong by IC50, led by results:
row,IC50 [nM],Compound
1,938,"Cc1ccc2nc(C)cc(C(=O)Nc3c(C)nn(Cc4cccc(OC(F)(F)F)c4)c3C)c2c1 [Example 117, N-{3,5-dimethyl-1-[3-(trifluoromethoxy)benzyl]-1H-pyrazol-4-yl}-2,6-dimethylquinoline-4-carboxamide]"
2,771,"Cc1ccc2nc(C)cc(C(=O)Nc3c(C)nn(Cc4ccccc4F)c3C)c2c1 [Example 112, N-[1-(2-fluorobenzyl)-3,5-dimethyl-1H-pyrazol-4-yl]-2,6-dimethylquinoline-4-carboxamide]"
3,708,"COc1cc(C(=O)Nc2c(C)nn(Cc3ccccn3)c2C)c2ccccc2n1 [Example 110, N-[3,5-dimethyl-1-(pyridin-2-ylmethyl)-1H-pyrazol-4-yl]-2-methoxyquinoline-4-carboxamide]"
4,708,"Cc1ccc2nc(C)cc(C(=O)Nc3c(C)nn(Cc4ccccc4C)c3C)c2c1 [Example 111, N-[3,5-dimethyl-1-(2-methylbenzyl)-1H-pyrazol-4-yl]-2,6-dimethylquinoline-4-carboxamide]"
5,671,"Cc1nn(Cc2ccc(F)cc2)c(C)c1NC(=O)c1cc(C2CC2)nc2c(C(F)(F)F)cccc12 [Example 108, 2-cyclopropyl-N-[1-(4-fluorobenzyl)-3,5-dimethyl-1H-pyrazol-4-yl]-8-(trifluoromethyl)quinoline-4-carboxamide]"
6,593,"Cc1ccc2nc(C)cc(C(=O)Nc3c(C)nn(Cc4ccc(C(F)(F)F)cc4)c3C)c2c1 [Example 107, N-{3,5-dimethyl-1-[4-(trifluoromethyl)benzyl]-1H-pyrazol-4-yl}-2,6-dimethylquinoline-4-carboxamide]"
7,571,"Cc1nn(Cc2ccc(F)cc2)c(C)c1NC(=O)c1cc(C(F)(F)F)nc2cc(Cl)c(Cl)cc12 [Example 106, 6,7-dichloro-N-[1-(4-fluorobenzyl)-3,5-dimethyl-1H-pyrazol-4-yl]-2-(trifluoromethyl)quinoline-4-carboxamide]"
8,446,"Cc1cc(C#N)c2nc(C(F)(F)F)cc(C(=O)Nc3c(C)nn(Cc4ccc(F)cc4)c3C)c2c1 [Example 102, 8-cyano-N-[1-(4-fluorobenzyl)-3,5-dimethyl-1H-pyrazol-4-yl]-6-methyl-2-(trifluoromethyl)quinoline-4-carboxamide]"
9,364,"Cc1nn(Cc2ccc(F)cc2)c(C)c1NC(=O)c1cc(Cl)nc2ccccc12 [Example 99, 2-chloro-N-[1-(4-fluorobenzyl)-3,5-dimethyl-1H-pyrazol-4-yl]quinoline-4-carboxamide]"
10,354,"COc1cccc(Cn2nc(C)c(NC(=O)c3cc(C(F)(F)F)nc4ccc(Br)cc34)c2C)c1 [Example 97, 6-bromo-N-[1-(3-methoxybenzyl)-3,5-dimethyl-1H-pyrazol-4-yl]-2-(trifluoromethyl)quinoline-4-carboxamide]"
11,292,"Cc1nn(Cc2cccc(OC(F)(F)F)c2)c(C)c1NC(=O)c1cc(C(F)(F)F)nc2c(Cl)cc(Cl)cc12 [Example 93, 6,8-dichloro-N-{3,5-dimethyl-1-[3-(trifluoromethoxy)benzyl]-1H-pyrazol-4-yl}-2-(trifluoromethyl)quinoline-4-carboxamide]"
12,1.5,"Cc1nn(Cc2ccc(F)cc2)c(C)c1NC(=O)c1cc(C(N)=O)nc2cc(F)c(F)cc12 [Example 120, 6,7-difluoro-N^4-[1-(4-fluorobenzyl)-3,5-dimethyl-1H-pyrazol-4-yl]quinoline-2,4-dicarboxamide]"
